Experimental data from a melting point compilation (Tetko et al.; mined from patent text by program, amines drawn as free bases though some values may be those of a salt).

| SMILES | melting point |
| --- | --- |
| CC(COC(=O)NC(=O)C(c1ccccc1)c1ccccc1)c1ccccc1 (racemic) | 131 °C |
| COC(=O)C1CCCCc2c1ncn2C(c1ccccc1)(c1ccccc1)c1ccccc1 (stereo not drawn) | 161 to 163 °C |
| O=C1C2CCCCC2C(=O)N1c1ccncc1 (stereo not drawn) | 165 to 168 °C |
| O=C1C2=C(SCCN2)C2CSCCN12 (stereo not drawn) | 142 °C |
| COc1ccc(CN2C(=O)C(C)(c3cc(N(S(C)(=O)=O)S(C)(=O)=O)ccc3Cl)c3cc(Cl)ccc32)c(OC)c1 (stereo not drawn) | 159 °C |
| CCN(CC)CCOCCC1CCCCN1C(=O)N1c2ccccc2NC(=O)c2csc(C)c21 (stereo not drawn) | 105 to 107 °C |
| COc1ccc(-c2c(N[C@H](C)c3ccccc3)c(=O)c2=O)cc1 | 159 to 160 °C |
| O=C(Oc1ccc([N+](=O)[O-])cc1)[C@@H]1CCCN1C(=O)OCc1ccccc1 | 94 to 96 °C |
| N#CC(=NOC(=O)OCC(Cl)(Cl)Cl)c1ccccc1 | 82 to 84 °C |
| O=C(O)COc1ccc(C(=O)c2cccc(F)c2)c(Cl)c1Cl | 166 to 168 °C |
| CCc1oc2ccc([N+](=O)[O-])cc2c1C(=O)c1ccc(O)cc1 | 152 °C |
| CC(C)c1cc([N+](=O)[O-])cc(C(C)C)c1OS(N)(=O)=O | 163 to 167 °C |
| O=C(N[C@H]1CC[C@H](N2CCN(c3ccccn3)CC2)CC1)c1ccccc1 | 241 to 244 °C |
| Oc1cnc(C2CCCCC2)nc1 | 163 °C |
| COc1ccc2sc(C(=O)OCc3ccccc3)c(OCc3ccccc3)c2c1 | 66 to 67 °C |
| O=[N+]([O-])c1ccc(C=Cc2nccn2Cc2ccccn2)o1 | 141 to 142 °C |
| COc1cc(COc2nn(-c3ccccc3)cc2/C=C/c2nnc(C)[nH]2)ccc1OCc1nc(-c2ccco2)oc1C | 165 to 166 °C |
| COc1cc(-c2ccnc(-c3cn(C)c(=O)n3-c3ccc(C(C)(C)C#N)cc3)c2)ccn1 | 138 °C |
| O=Cc1coc2cc(OC(=O)OCC(Cl)(Cl)Cl)c(OC(=O)OCC(Cl)(Cl)Cl)cc2c1=O | 153 to 155 °C |
| O=C(N[C@H](Cc1cccc(OC(F)(F)C(F)F)c1)[C@@H](O)c1ccc(F)nc1)c1cccc2c1C=CCCC2 (racemic) | 140 to 142 °C |
| CC1CCN(C=Nc2ccc3c(c2)C(=O)c2ccc(N=CN4CCC(C)CC4)cc2C3=O)CC1 | 229 to 233 °C |
| COCCNC(=O)c1cccc(-c2cccc3c(C)c(Cc4ccc(F)c(Cl)c4)sc23)c1 | 141 to 142 °C |
| C=CCNC(=S)C(OC)c1ccccn1 (stereo not drawn) | 59.5 to 60 °C |
| CC1C(S(=O)(=O)c2ccccc2)CCCC12OCCO2 (stereo not drawn) | 76 to 77 °C |
| O=C(O)c1nc2ccc(NCCCN3CCC(OC(c4ccccc4)c4ccccc4)CC3)nn2n1 | 135 to 138 °C |

| SMILES | melting point |
| --- | --- |
| CC(=O)Nc1nc(CCc2ccc(CC(=O)NC(=N)N)s2)cs1 | 188 to 190 °C |
| O=C1C=C(O)CC(c2ccc3c(c2)OCCO3)C1 (stereo not drawn) | 188 °C |
| CCOc1cc2ncc(NCc3ccccc3)nc2cc1OCC | 136 °C |
| CC(C)(CNc1ccc(C2=NNC(=O)CC2)cc1)[N+](=O)[O-] | 220 to 222 °C |
| COc1ccc(C(=O)N2C(=O)CCC2CCC(=O)OCc2ccccc2)cc1 (stereo not drawn) | 80 to 83 °C |
| CSc1ccc(-c2csc3ccc(C(=O)NN)cc23)cc1 | 195 to 196 °C |
| CC(C)(C)OC1CCCC2C(=O)CCCC12C (stereo not drawn) | 78 to 79 °C |
| CCC(C(=O)O)N(C(=O)c1cn(-c2ccc(OC)cc2)nc1C)c1ccc(OCC(C)(C)C)c(C#N)c1 (stereo not drawn) | 113 to 114 °C |
| COc1ccc2c(c1)C(c1ccc(Cl)cc1)=C1CCC(=S)NC12 (stereo not drawn) | 202 to 203 °C |
| OC(COc1ccc(Cl)cc1)(Cn1cncn1)Cn1cncn1 | 99 °C |
| N#Cc1cnn(-c2ccc(Cl)c(Cl)c2Cl)c1N1CCCC1=O | 160 to 161 °C |
| CC(Nc1nc(-c2ccccc2)cs1)c1ccc(COc2ccc(CC(=O)O)cc2)cc1 (stereo not drawn) | 116 to 118 °C |
| O=C(O)c1cc([N+](=O)[O-])cc2c1Nc1cc(-c3ccccc3)ccc1O2 | > 250 °C |
| CCCc1ccc(C(=O)O)c(F)c1F | 69 °C |
| CCCCCCCCCCCCCCCCOc1ccc(OCC(=O)Nc2cccc(CBr)c2)cc1 | 183 to 186 °C |
| CC(C)N(CCNc1ccc([N+](=O)[O-])c2ccccc12)C(C)C | 63 to 64 °C |
| Cc1oc(-c2ccccc2)nc1CCc1nc(COc2ccccc2CC(=O)O)cs1 | 152 to 153 °C |
| CCCCCCCCCCCCCCCc1cc2cccc(C(=O)O)c2[nH]1 | 93 to 99 °C |
| CC(C)(C)c1ccc(OCCCN2CCC(C(O)(c3ccc(F)cc3)c3ccc(F)cc3)CC2)cc1 | 126 to 127 °C |
| CCC1(C)C(=O)N(C(C)C)CC(C)(C)N1OC(C)(C)C#N (stereo not drawn) | 106 to 108 °C |
| O=c1cc(CCCl)c2ccccc2[nH]1 | 186 to 187 °C |
| CC(C#Cc1ccc(-c2cccnc2S)o1)N(O)C(N)=O (stereo not drawn) | 145 °C |
| CC(C)N1CCC(CN2CCN(CC3CCN(C(C)C)CC3)C2=C(C#N)C#N)CC1 | 172 to 174 °C |
| N#Cc1c(N2CCCN(c3ccc(F)c(F)c3)CC2)cc[nH]c1=S | 250 to 251 °C |
| c1ccc(NC2=NC(Nc3ccccc3)(c3ccccc3)C(c3ccccc3)=N2)cc1 (stereo not drawn) | 153 to 156 °C |

| SMILES | melting point |
| --- | --- |
| COc1cc(O)c(C)c(C(=O)O)c1Br | 79 to 80 °C |
| CCCCc1c(/C=C/C(=O)O)cc(OC)c2ccc(OC)cc12 | 174 to 176 °C |
| Nc1nnc(-c2ccc(CN3CCCCCC3)s2)o1 | 232 to 234 °C |
| O=C(O)Cc1nn(Cc2ccc(Br)cc2)c(=O)c2ccccc12 | 179 to 181 °C |
| COc1cc2cc(OCCCN3CCCCC3)ccc2c2ccc(OCCCN3CCCCC3)cc12 | 118 to 120 °C |
| CN1CCN(c2ccc(Nc3cc(-c4cccc(-n5ncc6cc(C(C)(C)C)cc(F)c6c5=O)c4CO)nn(C)c3=O)nc2)CC1 | 260 to 264 °C |
| CC(C)OC(=O)Cn1c(=O)n(C)c(=O)n(-c2cc(N=c3sc(=S)n4n3CCC=C4)c(F)cc2Cl)c1=O | 105 to 113 °C |
| CCCCCCCCCCCCCCCCCC(=O)Oc1ccc([N+](=O)[O-])cc1OC(=O)CCCCCCCCCCCCCCCCC | 68 to 70 °C |
| CS(=O)(=O)c1ccc(-c2ccccc2NC(=N)N2CCCCC2)cc1 | 128 to 129 °C |
| CCOP(=O)(Cc1ccc(Oc2sc(C(N)=O)c3c2-c2c(cnn2CC)CC3)cc1)OCC | 152 to 153 °C |
| CN1CC(CNC(=N)NC(=O)c2cccnc2)CC2c3cccc4c3c(cn4C)CC21 (stereo not drawn) | 207 to 209 °C |
| N#CC(Br)c1ccccn1 (stereo not drawn) | 62 to 64 °C |
| OCc1cc(Cl)c(Cl)c(Cl)n1 | 82 to 83 °C |
| O=C(CCc1ccccc1)Nc1cc(-c2nnc(CCc3cccc(F)c3)o2)ccn1 | 171 to 172 °C |
| CC1=NC(=NOC(=O)NC(C)C)SC1(C)C | 114 to 116 °C |
| O=C(CCc1ccccc1)c1cccnc1Oc1ccc(F)cc1 | 82 to 83 °C |
| CN(C)C(=O)Nc1ccc(Oc2ccc3ccccc3c2)c(C(F)(F)F)c1 | 210 to 211 °C |
| CCCCOCCOc1ccc(-c2ccc3c(c2)C=C(C(=O)Nc2ccc(SCc4nncn4CCC)c(C)c2)CCN3CC(C)C)cc1 | 104 to 107 °C |
| O=C(O)/C=C/c1cccc(OCCC(c2ccccc2)(c2ccccc2)c2ccccc2)c1 | 104 to 109 °C |
| COC(=O)[C@@H]1C[C@H](OC(=O)c2cccnc2)C(=O)[C@H]2[C@@]1(C)CC[C@H]1C(=O)O[C@H](c3ccoc3)C[C@]21C | 200 to 204 °C |
| O=C(CC1CSCCC1=O)c1ccc(F)cc1 (stereo not drawn) | 112 to 114 °C |
| O=C(O)c1cccc(CN2CCC(c3cn(CCc4ccccn4)c4ccccc34)CC2)c1 | 141 to 142 °C |
| CCCc1c(O)ccc2c1OC(C)(CCC(=O)O)CC2=O (stereo not drawn) | 152 to 153 °C |
| Cc1ccc(NC(=O)NCc2ccc3c(c2)CN(C2CCC(=O)NC2=O)C3=O)cc1 (stereo not drawn) | 267 to 269 °C |
| CCC(C)(C)c1cc(-c2cccc(C=C3SC(N4CCOCC4)=NC3=O)c2)cc(F)c1O | 206 to 208 °C |

| SMILES | melting point |
| --- | --- |
| COC1=Cc2c(n(C)c(=O)n2C)CC1=NNC(=N)N | 260 °C |
| COC(=O)CCCc1cc2nc(Cl)ccc2n1S(=O)(=O)c1ccc2c(c1)OCO2 | 120 °C |
| Nc1cc(=O)n(Cc2cccc(C(F)(F)F)c2)[nH]1 | 130 °C |
| CCCCC(Cc1ccc(OCCNC(=O)c2ccc(O)nc2)cc1)C(=O)O (stereo not drawn) | 69 to 71 °C |
| CCCCCCNC(=O)Oc1ccc2c(c1)CCCN2 | 100 °C |
| COc1ccc(-c2nc(Sc3cccc(F)c3)[nH]c2-c2ccc(OC)cc2)cc1 | 147 to 149 °C |
| CC(C)(C)OC(=O)N(CC=Cc1ccccc1)S(N)(=O)=O | 118 °C |
| O=C1C2=NCCCN2c2ccc(F)cc21 | 150 to 152 °C |
| NC(=O)CCc1cccc(-c2nc(=O)c3ccccc3s2)n1 | 236 °C |
| C=CCN(CCC)S(=O)(=O)NC(=O)c1cc(N=C=S)c(F)cc1Cl | 83 to 85 °C |
| Cc1c(C(C)N(O)C(N)=O)sc2ccccc12 (stereo not drawn) | 130 to 132 °C |
| NC(=O)NCc1ccc2ccn(C3CCN(CCc4ccc(F)cc4)CC3)c2c1 | 172 to 173 °C |
| Cc1cn(C(C)(C)C(=O)N(C)c2ccccc2)nc1-c1ccccc1 | 152 to 154 °C |
| Cc1ccc2c(N)c(Cl)ccc2n1 | 196 to 197 °C |
| CC(C)(C)c1ccc(Sc2cccc(C=C3SC(=S)NC3=O)c2)cc1 | 188 to 190 °C |
| Cc1cccc2c(Nc3cc(CO)cc(NC(=O)Nc4ccc(N(CCCl)CCCl)cc4)c3)c3ccccc3nc12 | 251 to 252 °C |
| CC(=CC(=O)O)c1ccc(-c2ccc(F)cc2F)cc1 | 193 to 195 °C |
| CCC(=O)c1ccc(CCN(C(C)=O)S(=O)(=O)c2ccc(Cl)cc2)cc1 | 91 to 92 °C |
| CC(C)(C)OC(=O)N1CCN(c2cccc([N+](=O)[O-])c2)CC1 | 82 to 92 °C |
| COC(=O)C1Cc2c([nH]c3ccccc23)C(c2ccccc2Br)N1C(=O)CCl (stereo not drawn) | 113 to 115 °C |
| N#CCCNC(=O)c1cccc(-c2cccc3nn(Cc4cccc(C(F)(F)F)c4)cc23)n1 | 178 to 179 °C |
| O=C(O)[C@@H](CCN1C(=O)c2ccccc2C1=O)Oc1c(Br)cc(-c2c(Br)ccc3sc4ccccc4c23)cc1Br | 130 to 132 °C |
| CCCCC1CCC2(C)C(=CCC3C4CCC(=O)C4(C)CCC32)C1 (stereo not drawn) | 84 to 86 °C |
